{"source": "patent US12496327B2", "about": "“Methods and compositions for restoring STMN2 levels” (President and Fellows of Harvard College, priority 2019, dated 2025)", "key": {"STMN2 cryptic exon": {"tested_on": "STMN2 cryptic exon", "assay": "RT-PCR detection of STMN2 cryptic exon in hMNs", "format": "cell-based, human", "conditions": "hMNs treated with proteasome inhibitor", "excerpt": "TDP-43 plays an important role in the nucleus regulating RNA splicing, and recent studies highlight its ability to suppress non-conserved or cryptic exons to maintain intron integrity (80). When cryptic exons are included in RNA transcripts, in many cases, their inclusion can affect normal levels of the gene product by disrupting its translation or by promoting nonsense-mediated decay (80). […] The sequencing data was examined for evidence of cryptic exons in genes observed to be reproducibly regulated by TDP-43 in human cancer cells (81). […] To accomplish this goal, an RT-PCR assay was developed to detect transcripts containing the cryptic exon (FIG. 5F). […] Total RNA was isolated from neurons using RNeasy Mini Kit (Qiagen) according to manufacturer's instructions. A total of 300-1000 ng of total RNA was used to synthesize cDNA by reverse transcription according to the iSCRIPT kit (Bio-rad). RT-PCR was then performed using one cryptic exon-specific primer and then analyzed using the Agilent 2200 Tapestation."}, "STMN2 transcript": {"tested_on": "STMN2 transcript", "assay": "qRT-PCR analysis of STMN2 expression in hMNs", "format": "cell-based, human", "conditions": "either a short-term high dose or a long-term low dose, both cases", "method": "Total RNA was isolated from d10 MNs for RNA-Seq experiments and validation assays using Trizol LS (Invitrogen) according to manufacturer's instructions. 500 μL were added per well of the 24-well cultures. A total of 300-1000 ng of total RNA was used to synthesize cDNA by reverse transcription according to the iSCRIPT kit (Bio-rad). Quantitative RT-PCR (qRT-PCR) was then performed using SYBR green (Bio-Rad) and the iCycler system (Bio-rad). Quantitative levels for all genes assayed were normalized using GAPDH expression. […] All primer sequences are available upon request. For next-generation RNA sequencing (RNA-Seq), at least two technical replicas per siRNA sample or AAVS1-TDP43 genotype were included in the analyses. After RNA extraction, samples with RNA integrity numbers (RIN) above 7.5, determined by a bioAnalyzer, were used for library preparation. In brief, RNA sequencing libraries were generated from ˜250 ng of total RNA using the illumina TruSeq RNA kit v2, according to the manufacturer's directions. Libraries were sequenced at the Harvard Bauer Core Sequencing facility on a HiSeq 2000 platform. All FASTQ files were analyzed using the bcbioRNASeq workflow and toolchain (90). The FASTQ files were aligned to the GRCh37/hg19 reference genome. Differential expression testing was performed using DESeq2 suite of bioinformatics tools (38). […]"}, "motor neurons": {"tested_on": "motor neurons", "assay": "Cell Titer Glo neuronal survival assay", "format": "cell-based, human", "excerpt": "(§1) N=6 separate wells of neurons. (Unpaired t test, P value <0.05). […] N=triplicate wells. Cells are viable after 1 day of treatment at all the concentrations tested and lower concentrations are tolerated for more extended periods of time. […] N=4 separate wells of neurons (Unpaired t test, P value <0.05).\n(§2) A previous study established that proteasome inhibition in hMNs could trigger accumulation of mutant SOD-1 (31). It was, therefore, examined whether MG-132-mediated proteasome inhibition affected TDP-43 localization in hMNs as a potential model of sporadic ALS. First, the range and timing of small molecule treatment that could inhibit the proteasome without inducing overt cellular toxicity was established (FIGS. 14A-14D). […] Then a pulse-chase experiment was performed to determine the consequences of proteasome inhibition on TDP-43 localization (FIG. 5A). […] Thus, proteasome inhibition in hMNs induces a TDP-43 mislocalization that is reversible."}, "proteasome": {"tested_on": "proteasome", "assay": "Proteasome activity assay (luciferase substrate) in neurons treated with MG-132", "format": "cell-based, human", "excerpt": "as §1, §2"}, "TDP-43 [1]": {"tested_on": "TDP-43", "assay": "TDP-43 localization by immunostaining, Pearson's correlation with DAPI", "format": "cell-based, human", "method": "as §2\nFor immunofluorescence, cells were fixed with ice-cold 4% PFA for 15 minutes at 4° C., permeabilized with 0.2% Triton-X in 1×PBS for 45 minutes and blocked with 10% donkey serum in 1×PBS-T (0.1% Tween-20) for 1 hour. Cells were then incubated overnight at 4° C. with primary antibody (diluted in blocking solution). At least 4 washes (5 min incubation each) with 1×PBS-T were carried out, before incubating the cells with secondary antibodies for 1 hour at room temperature (diluted in blocking solution). Nuclei were stained with DAPI. […] Micrographs were analyzed using FIJI software to determine the correlation coefficient."}, "STMN2 mRNA": {"tested_on": "STMN2 mRNA", "assay": "STMN2 mRNA expression in HUES3, IG2 and CN7 cell lines stressed with MG132", "format": "cell-based, human", "method": "Three cell lines, HUES3, IG2 (Stmn2 KO), and CN7 (cryptic exon deletion) were treated with normal media or media+1 uM MG132 for 24 hours to stress the cells. In HUES3 cells, the stressed condition had 52% STMN2 mRNA expression compared to the unstressed condition. In IG2 (Stmn2 KO) condition, unstressed cells had 13% expression, and when stressed, expression increased to 42%. […] It was shown that if several exons are knocked out the expression goes down, but if the TDP-43 binding site is removed, expression goes way up."}, "TDP-43 [2]": {"tested_on": "TDP-43", "assay": "Immunoblot of TDP-43 in detergent-soluble (RIPA) and detergent-insoluble (UREA) fractions", "format": "cell-based, human", "method": "To determine what happened to TDP-43 after proteasome inhibition, TDP-43 levels were examined by immunoblot analysis in both the detergent-soluble and detergent-insoluble fractions. […] Finally, STMN2 levels in neurons treated with either a short-term high dose or a long-term low dose of MG-132 were probed.\nFor analysis of TDP-43 and STMN2 protein expression levels, d10 MNs were lysed in RIPA buffer (150 mM Sodium Chloride; 1% Triton X-100; 0.5% sodium deoxycholate; 0.1% SDS; 50 mM Tris pH 8.0) containing protease and phosphatase inhibitors (Roche) for 20 min on ice, and centrifuged at high speed. 200 μL of RIPA buffer per well of 24-well culture were routinely used, which yielded ˜20 μg of total protein as determined by BCA (Thermo Scientific). After two washes with RIPA buffer, insoluble pellets were resuspended in 200 μl of UREA buffer (Bio-Rad). For immunoblot assays 2-3 μg of total protein were separated by SDS-PAGE (BioRad), transferred to PDVF membranes (BioRad) and probed with antibodies against TDP-43 (1:1000, ProteinTech Group), GAPDH (1:1000, Millipore) and STMN2 (1:3000, Novus). Insoluble pellets were loaded based on protein concentration of correspondent RIPA-soluble counterparts. […] GAPDH levels were used to normalized each sample, and LiCor software was used to quantitate protein band signal."}, "hMNs": {"tested_on": "hMNs", "assay": "Neurite outgrowth assay (Sholl analysis) of hMNs", "format": "cell-based, human", "conditions": "STMN2+/+ hMNs, 10 μM", "method": "Given the reported role of STMN2 in regulating axonal growth by promoting the dynamic instability of microtubules (77), phenotypic assays were carried out characterizing neurite outgrowth in the STMN2−/− hMNs. After 7 days in culture, sorted hMNs were fixed and stained for β-III-tubulin to label the neuronal processes (FIG. 4E).\nIndividual Tuj1-positive neurons used for Sholl analyses were randomly selected and imaged using a Nikon Eclipse TE300 with a 40× objective. The neurites were traced using the ImageJ (NIH) plugin NeuronJ (78), and Sholl analysis was performed using the Sholl tool of Fiji (96), quantifying the number of intersections at 10-μm intervals from the cell body. Statistical analysis was performed by comparing the number of intersections of KO clones with the parental WT line for each 10-μm interval using Prism 6 (Graph Pad, La Jolla, CA, USA). Significance was assessed by a standard Student's t-test, with a p value of p<0.05 considered as significant."}, "STMN2 transcripts": {"tested_on": "STMN2 transcripts", "assay": "ASO effect on STMN2 cryptic exon and full length transcripts during TDP-43 depletion", "format": "cell-based"}}, "note": "Where a SMILES comes first, the peptide text is derived from it. The star is where a group is joined. Cbz = O=C(OCc1ccccc1)*"}
{"compound": "CC(C)C[C@H](NC(=O)[C@H](Cc1ccccc1)NC(=O)c1cnccn1)B(O)O", "note": "[Bortezomib]", "values": [{"measurement": "transcripts containing the STMN2 cryptic exon (PCR product)", "setting": "STMN2 cryptic exon", "value": "presence of transcripts containing the STMN2 cryptic exon"}]}
{"compound": "CC(C)C[C@@H](C=O)NC(=O)[C@H](CC(C)C)NC(=O)[C@H](CC(C)C)NC(=O)OCc1ccccc1", "note": "[MG-132] (Cbz-Leu-Leu-Leu-aldehyde)", "values": [{"measurement": "STMN2 mRNA levels", "setting": "STMN2 transcript", "value": "significant decreases"}, {"measurement": "cell viability (neuronal survival)", "setting": "motor neurons; 1 day of treatment, all concentrations tested (FIG. 14D)", "value": "viable"}, {"measurement": "tolerance of neurons to treatment without overt cellular toxicity", "setting": "motor neurons; overnight 1 μM treatment", "value": "could withstand"}, {"measurement": "proteasome activity", "setting": "proteasome; neurons treated with MG-132, N=4 wells (FIG. 14E)", "value": "significantly decreased proteasome activity"}, {"measurement": "proteasome activity", "setting": "proteasome; overnight 1 μM treatment of hMNs", "value": "less than 10 % of normal activity"}, {"measurement": "TDP-43 staining following washout", "setting": "TDP-43 [1]; 4 days after washout of 24 hour 1 μM pulse", "value": "indistinguishable to unchallenged neurons"}, {"measurement": "TDP-43 staining in the nucleus", "setting": "TDP-43 [1]; after 24 hour 1 μM pulse", "value": "greatly diminished"}, {"measurement": "STMN2 mRNA expression", "setting": "STMN2 mRNA; CN7 (Cryptic Exon Deletion) cells, 1 uM for 24 hours (stressed)", "value": 473, "unit": "%"}, {"measurement": "STMN2 mRNA expression", "setting": "STMN2 mRNA; HUES3 cells, 1 uM for 24 hours, compared to the unstressed condition", "value": 52, "unit": "%"}, {"measurement": "STMN2 mRNA expression", "setting": "STMN2 mRNA; IG2 (Stmn2 KO) cells, 1 uM for 24 hours (stressed)", "value": 42, "unit": "%"}, {"measurement": "transcripts containing the STMN2 cryptic exon (PCR product)", "setting": "STMN2 cryptic exon", "value": "presence of transcripts containing the STMN2 cryptic exon"}, {"measurement": "TDP-43 levels in soluble lysates", "setting": "TDP-43 [2]; control neurons, low dose, detergent-soluble (RIPA) fraction", "value": "significantly decreased"}, {"measurement": "TDP-43 in UREA (insoluble) fraction", "setting": "TDP-43 [2]; detergent-insoluble fraction", "value": "become insoluble"}]}
{"compound": "C[C@@H](N)[C@H]1CC[C@H](C(=O)Nc2ccncc2)CC1", "note": "[Y-27632]", "values": [{"measurement": "neurite outgrowth", "setting": "hMNs", "value": "enhancing the outgrowth"}]}
{"compound": "TCTTCAGTATTGCTATTCAT (2'-MOE nucleotides, further chemistry not given here) [ASO (SEQ ID NO: 11), antisense oligonucleotide targeting the abortive or altered STMN2 RNA]", "values": [{"measurement": "ability to decrease the abundance of cryptic exon containing transcripts", "setting": "STMN2 transcripts; 2.5 μM (FIG. 69A)", "value": "effectiveness"}, {"measurement": "ability to increase the abundance of full length STMN2 transcripts", "setting": "STMN2 transcripts; 2.5 μM, during TDP-43 depletion (FIG. 69B)", "value": "effectiveness"}]}
